Laboratory results reported in patent publication US20190084968A1, “FUMAGILLOL HETEROCYCLIC COMPOUNDS AND METHODS OF MAKING AND USING SAME” (Zafgen, Inc., priority 2015, published 2019).
pIC50: −log10 of the molar value. Counter-ions that a name gives are not always drawn.

How the values were obtained:
[1] = target: T1, recombinant human MetAP2 (Homo sapiens, UniProt P50579); assay: Recombinant human MetAP2 enzyme inhibition assay (MAS peptide / amino acid oxidase / Amplex UltraRed); format: biochemical
T1 construct: Flag; made in house
T1 sequence (P50579 whole entry): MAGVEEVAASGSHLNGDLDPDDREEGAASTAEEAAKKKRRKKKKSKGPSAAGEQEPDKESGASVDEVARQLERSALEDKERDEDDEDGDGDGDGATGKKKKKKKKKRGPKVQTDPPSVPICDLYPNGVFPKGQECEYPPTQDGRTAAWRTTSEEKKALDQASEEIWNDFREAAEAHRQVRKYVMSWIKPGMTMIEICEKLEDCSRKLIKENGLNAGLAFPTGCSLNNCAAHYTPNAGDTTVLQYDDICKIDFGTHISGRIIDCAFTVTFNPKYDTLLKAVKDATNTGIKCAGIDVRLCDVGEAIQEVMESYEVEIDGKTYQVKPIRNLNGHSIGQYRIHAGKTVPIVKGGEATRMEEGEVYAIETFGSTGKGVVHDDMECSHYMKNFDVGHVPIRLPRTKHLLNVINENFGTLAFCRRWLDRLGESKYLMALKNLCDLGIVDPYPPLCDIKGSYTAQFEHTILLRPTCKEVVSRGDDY
Procedure: Compounds are tested for their capacity to inhibit recombinant human MetAP2 activity using the following assay.
Flag tagged Human recombinant MetAP2 expressed and isolated for use as the enzyme source. 10 mM stock solutions of compounds were prepared in 100% DMSO and further diluted in 100% DMSO required concentration to 1 mM stocks. The stock compound solutions and DMSO vehicle controls were diluted to target final compound concentrations using assay buffer to a final concentration of 50 mM HEPES containing 100 mM NaCl, pH adjusted to 7.5. The MAS peptide was formulated to a 7.5 mM stock in distilled water and prior to use further diluted 1:4. […] 40 μl of enzyme was mixed with 100 μl of MnCl2 then further diluted in assay buffer to a final concentration of 16 μg/ml. To test for compound effect on MetAP2 enzyme activity, 5 μl of test compound, 10 μl of MAS substrate/amino acid oxidase mixture, 10 μl of MetAP2 was added to test wells in a 384 well black plate with blank wells containing no enzyme, replaced with 10 μl of assay buffer. All compounds were tested in duplicate on two occasions on the same day.
The plate was sealed with a TopSeal A cover and mixed briefly on an orbital mixer at 900 rpm. The plate was incubated for a further 25 minutes at 25° C. A 5× stock of Amplex buffer was prepared (0.25M sodium phosphate, pH 7.4) and stored at 4° C. When preparing for use the stock was diluted with distilled water. […] 25 μl detection reagent was added to each well of the test plate, which was re-sealed and mixed briefly on an orbital shaker. […] At the end of the MetAP2 incubation 25 μl Amplex/HRP mixture per well was added and the plate read plate on a plate reader.

[2] = system: Diet Induced Obese (DIO) C57BL/6 mice; assay: 10 day DIO mouse model (body weight, food intake, hematology, blood chemistry); format: in vivo; conditions: mouse, in vivo, sc, 0.3 mg/kg
Description: The objective of this study design was to investigate the efficacy of disclosed compounds in a 10 day DIO mouse model. Effects on body weight, food intake, hematology and blood chemistry were the primary readouts of this study design. […] Mice were fed Research Diets D12492 (60% Kcal fat, 20% Kcal carbohydrate and 20% protein) and provided water ad libitum. DIO mice were received and housed in the facility for approximately two weeks prior to the start of test article administration. On Day −4 or −3, mice were randomized into study groups based on body weight and body weights were continued to be recorded daily for the duration of the study. Daily food intake was assessed starting on Study Day −2 by weighing of the food with hopper together to avoid loss of food in transfer.
(§1) Compounds were formulated into a 100% DMSO stock (at 9 mg/mL) prior to the start, and further diluted into the target working concentration using the vehicle of 10% DMSO in water. Prior to test article administration, starting on Day −3 a dosing acclimation occured with all animals receiving a subcutaneous injection of vehicle (10% DMSO) only for 3 days. Starting on Day 1, test compounds or vehicle were administered based on individual body weight, subcutaneously, once a day for 10 days. All mice were sacrificed on Day 11, 24 hours following the final dosing on Day 10. After sacrifice, whole blood was collected and analyzed for hematology and blood chemistry parameters.
(§2) Compounds were tested vs. vehicle at various doses (1.0, 0.5, 0.3, 0.1, 0.03 mpk sc (mg per kg animal weight delivered subcutaneously), and the results are shown in Table 2 below.

[3] = system: Sprague Dawley rats on high fat diet (DIO); assay: 11 day rat DIO model (body weight, food intake, hematology, blood chemistry); format: in vivo; conditions: rat, in vivo, sc
Description: The objective of this study design is to investigate the efficacy of disclosed compounds in an 11 day rat DIO model used to screen compounds for pharmacologic efficacy on endpoints related to obesity and metabolism. Effects on body weight, food intake, hematology and blood chemistries were the primary readouts of this study design. […] Rats were fed Research Diets D12451 (45% High Fat) and provided water ad libitum. Rats were received and housed in the facility for at least two or three weeks prior to start of test article administration. On Day −4 or −3, rats were randomized into study groups based on body weight and body weights were continued to be recorded daily for the duration of the study. Daily food intake was assessed starting on Study Day −2 by weighing the hopper including the food to avoid loss of food in transfer.
as §1, with “for 11” for “for 10”, “All animals” for “All mice”, “11, approximately 2” for “11, 24”, “Day 11.” for “Day 10.”
as §2

[4] = system: embryo/fetal development in pregnant Sprague Dawley rats; conditions: 6 mpk subcutaneously once every three days, Gestation Days 6-18, pregnant rats
Procedure: The objective of this study design was to evaluate the potential effects of disclosed compounds on embryo/fetal development when given subcutaneously to pregnant rats once every three days during the critical period of organogenesis (Gestation Days 6-18). Female, Sprague Dawley rats, approximately 10 weeks of age, time bred, were ordered from a certified vendor and housed individually housed in stainless steel cages suspended over flush pans, on a 12-hour light-dark cycle (0700-1900) at 20-26° C. and 30-70% humidity. Rats were fed a standard rodent chow and provided water ad libitum. Rats were received and housed in the facility for a period of approximately 1 to 2 days.
Compounds were formulated using 100% DMSO mixed in Sterile Water for Injection, resulting in 2% DMSO solution in water. If necessary, due to limited solubility of a test article, a higher percentage of DMSO solution in water was used. Groups of 8 mated and presumed pregnant female rats were given subcutaneous doses of vehicle or test article, once every three days, beginning on Gestation Day 6 and ending on Gestation Day 18 (Days 6, 9, 12, 15, and 18), maintained two more days, and then euthanized and necropsied on Gestation Day 20. Body weights was recorded for all animals on Gestation Days 5 (purpose of randomization), 6, 9, 12, 15, 18, and 20 (scheduled euthanasia). Food consumption by weight was recorded on Gestation Days 6, 9, 12, 15, 18, and 20 (scheduled termination).
At necropsy, the dams were examined visually for external abnormalities including palpable masses. The abdominal, thoracic, and cranial cavities and their contents were examined for abnormalities and findings will be recorded. The reproductive tract were examined to record the number of ovarian corpora lutea, the number and location of uterine implantation sites noting the position of the cervix, and the number of early resorptions, late resorptions, live fetuses, and dead fetuses. For dead fetuses and late resorptions, crown-to-rump length and weight were recorded, if possible, and the fetus was discarded. For viable fetuses, weight, sex, and grossly visible external abnormalities were recorded.

SMILES | pIC50 [1] | DIO Mouse 10-day weight loss vs vehicle at indicated dose [2] [%] | DIO Rat 11-day weight loss vs vehicle at indicated dose ([3]; 0.3 mg/kg) [%] | DIO Rat 11-day weight loss vs vehicle at indicated dose ([3]; 1 mg/kg) [%] | Rat Embryofetal @6 mpk [4]
CO[C@@H]1[C@H](OC(=O)N2CC(CCN3CC(O)C3)C2)CC[C@]2(CO2)[C@H]1[C@@]1(C)O[C@@H]1CC=C(C)C [Example 6, (3R,4S,5S,6R)-5-methoxy-4-((2R,3R)-2-methyl-3-(3-methylbut-2-enyl)oxiran-2-yl)-1-oxaspiro[2.5]octan-6-yl 3-(2-(3-hydroxyazetidin-1-yl)ethyl)azetidine-1-carboxylate formate] | > 7.30 | 11.8 | 0.8 | 4.6 | Positive
CO[C@@H]1[C@H](OC(=O)N2CC(CCN3CC(C)(O)C3)C2)CC[C@]2(CO2)[C@H]1[C@@]1(C)O[C@@H]1CC=C(C)C [Example 9, (3R,4S,5S,6R)-5-methoxy-4-((2R,3R)-2-methyl-3-(3-methylbut-2-enyl)oxiran-2-yl)-1-oxaspiro[2.5]octan-6-yl 3-(2-(3-hydroxy-3-methylazetidin-1-yl)ethyl)azetidine-1-carboxylate formate] | > 7.30 | 7.4 | 5.5 | 4.8 | Positive
CO[C@@H]1[C@H](OC(=O)N2CC(CCN3CC4C(C3)C4(F)F)C2)CC[C@]2(CO2)[C@H]1[C@@]1(C)O[C@@H]1CC=C(C)C (stereo partly drawn) [Example 22, (3R,4S,5S,6R)-5-methoxy-4-((2R,3R)-2-methyl-3-(3-methylbut-2-enyl)oxiran-2-yl)-1-oxaspiro[2.5]octan-6-yl 3-(2-(6,6-difluoro-3-azabicyclo[3.1.0]hexan-3-yl)ethyl)azetidine-1-carboxylate formate] | > 7.30 | 14 | – | – | Negative
